Reference: ChEMBL document CHEMBL5653615 (J Biol Chem, 2013)

Experiments:
[1] = biological target: Serine/threonine-protein kinase MARK1 (Homo sapiens) (UniProt Q9P0L2); experiment: Inhibition of human MARK1 at 18.6 nM by HotSpot assay relative to control
[2] = biological target: Protein kinase C theta type (Homo sapiens) (UniProt Q04759); experiment: Inhibition of human PKCtheta at 18.6 nM by HotSpot assay relative to control
[3] = biological target: T1, Serine/threonine-protein kinase D2 (Homo sapiens) (UniProt Q9BZL6); experiment: Inhibition of human PRKD2 at 18.6 nM by HotSpot assay relative to control
T1 sequence (whole entry): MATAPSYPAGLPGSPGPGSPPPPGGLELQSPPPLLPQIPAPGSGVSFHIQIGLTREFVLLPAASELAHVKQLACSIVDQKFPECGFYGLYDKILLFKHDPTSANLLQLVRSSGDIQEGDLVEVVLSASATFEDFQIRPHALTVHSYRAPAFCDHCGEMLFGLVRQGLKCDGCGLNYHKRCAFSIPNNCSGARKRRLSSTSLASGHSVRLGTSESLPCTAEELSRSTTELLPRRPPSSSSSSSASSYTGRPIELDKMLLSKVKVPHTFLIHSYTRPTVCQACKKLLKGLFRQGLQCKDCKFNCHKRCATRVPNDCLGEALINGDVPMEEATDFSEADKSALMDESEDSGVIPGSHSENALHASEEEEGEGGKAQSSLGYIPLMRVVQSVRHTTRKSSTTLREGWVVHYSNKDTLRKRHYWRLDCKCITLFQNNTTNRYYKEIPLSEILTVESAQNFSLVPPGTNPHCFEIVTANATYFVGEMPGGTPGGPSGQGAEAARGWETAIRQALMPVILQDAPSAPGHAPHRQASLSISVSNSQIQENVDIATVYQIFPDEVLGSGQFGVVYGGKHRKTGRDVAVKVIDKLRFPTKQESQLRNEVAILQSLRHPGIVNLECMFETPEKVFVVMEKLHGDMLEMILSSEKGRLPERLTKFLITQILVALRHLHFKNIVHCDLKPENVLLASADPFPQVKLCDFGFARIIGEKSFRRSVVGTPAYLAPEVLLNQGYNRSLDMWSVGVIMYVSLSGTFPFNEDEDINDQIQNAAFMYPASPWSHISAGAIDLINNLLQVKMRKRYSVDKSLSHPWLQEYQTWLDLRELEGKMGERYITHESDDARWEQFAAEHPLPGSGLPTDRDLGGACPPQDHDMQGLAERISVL

[4] = biological target: T2, Serine/threonine-protein kinase Sgk2 (Homo sapiens) (UniProt Q9HBY8); experiment: Inhibition of human SGK2 at 18.6 nM by HotSpot assay relative to control
T2 sequence (whole entry): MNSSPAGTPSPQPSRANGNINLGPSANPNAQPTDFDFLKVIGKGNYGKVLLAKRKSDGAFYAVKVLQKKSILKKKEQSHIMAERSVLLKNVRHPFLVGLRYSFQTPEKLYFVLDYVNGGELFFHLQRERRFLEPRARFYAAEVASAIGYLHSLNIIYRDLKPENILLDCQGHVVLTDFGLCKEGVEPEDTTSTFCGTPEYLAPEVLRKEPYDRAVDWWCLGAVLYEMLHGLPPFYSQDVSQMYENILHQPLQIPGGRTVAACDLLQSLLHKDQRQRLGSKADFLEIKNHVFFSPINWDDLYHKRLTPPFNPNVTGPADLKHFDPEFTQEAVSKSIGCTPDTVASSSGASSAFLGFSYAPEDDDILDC

[5] = biological target: T3, Serine/threonine-protein kinase ULK1 (Homo sapiens) (UniProt O75385); experiment: Inhibition of human ULK1 at 18.6 nM by HotSpot assay relative to control
T3 sequence (whole entry): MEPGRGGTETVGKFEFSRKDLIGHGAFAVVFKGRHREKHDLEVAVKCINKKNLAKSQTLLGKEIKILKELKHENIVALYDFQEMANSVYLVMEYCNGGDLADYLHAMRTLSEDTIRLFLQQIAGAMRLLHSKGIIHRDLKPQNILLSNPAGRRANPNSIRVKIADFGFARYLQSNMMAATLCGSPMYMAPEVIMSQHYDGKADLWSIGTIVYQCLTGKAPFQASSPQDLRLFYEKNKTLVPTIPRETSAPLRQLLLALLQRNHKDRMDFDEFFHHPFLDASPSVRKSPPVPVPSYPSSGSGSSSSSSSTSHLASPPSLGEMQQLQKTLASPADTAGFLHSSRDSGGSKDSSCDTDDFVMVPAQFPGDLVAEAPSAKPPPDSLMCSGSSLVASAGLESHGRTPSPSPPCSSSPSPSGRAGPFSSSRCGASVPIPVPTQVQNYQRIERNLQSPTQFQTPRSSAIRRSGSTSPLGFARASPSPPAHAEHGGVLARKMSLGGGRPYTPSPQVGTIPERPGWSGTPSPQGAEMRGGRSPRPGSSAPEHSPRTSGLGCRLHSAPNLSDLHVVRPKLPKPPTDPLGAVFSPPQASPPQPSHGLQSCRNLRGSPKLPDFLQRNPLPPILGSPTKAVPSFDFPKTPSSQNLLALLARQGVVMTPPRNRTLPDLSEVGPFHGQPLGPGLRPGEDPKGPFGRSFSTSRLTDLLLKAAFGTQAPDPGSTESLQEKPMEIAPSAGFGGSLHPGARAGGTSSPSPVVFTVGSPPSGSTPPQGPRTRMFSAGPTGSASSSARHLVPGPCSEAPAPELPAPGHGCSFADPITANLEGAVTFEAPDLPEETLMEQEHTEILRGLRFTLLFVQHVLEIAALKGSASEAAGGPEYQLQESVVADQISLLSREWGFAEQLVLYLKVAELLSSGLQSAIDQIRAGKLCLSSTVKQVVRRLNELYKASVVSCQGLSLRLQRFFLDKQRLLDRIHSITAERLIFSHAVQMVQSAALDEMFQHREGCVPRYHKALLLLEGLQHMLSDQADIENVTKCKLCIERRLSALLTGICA

[6] = biological target: Epidermal growth factor receptor (Homo sapiens) (UniProt P00533); experiment: Inhibition of human EGFR at 1.82 nM by HotSpot assay relative to control
Chain of Epidermal growth factor receptor (Homo sapiens) (P00533 whole entry): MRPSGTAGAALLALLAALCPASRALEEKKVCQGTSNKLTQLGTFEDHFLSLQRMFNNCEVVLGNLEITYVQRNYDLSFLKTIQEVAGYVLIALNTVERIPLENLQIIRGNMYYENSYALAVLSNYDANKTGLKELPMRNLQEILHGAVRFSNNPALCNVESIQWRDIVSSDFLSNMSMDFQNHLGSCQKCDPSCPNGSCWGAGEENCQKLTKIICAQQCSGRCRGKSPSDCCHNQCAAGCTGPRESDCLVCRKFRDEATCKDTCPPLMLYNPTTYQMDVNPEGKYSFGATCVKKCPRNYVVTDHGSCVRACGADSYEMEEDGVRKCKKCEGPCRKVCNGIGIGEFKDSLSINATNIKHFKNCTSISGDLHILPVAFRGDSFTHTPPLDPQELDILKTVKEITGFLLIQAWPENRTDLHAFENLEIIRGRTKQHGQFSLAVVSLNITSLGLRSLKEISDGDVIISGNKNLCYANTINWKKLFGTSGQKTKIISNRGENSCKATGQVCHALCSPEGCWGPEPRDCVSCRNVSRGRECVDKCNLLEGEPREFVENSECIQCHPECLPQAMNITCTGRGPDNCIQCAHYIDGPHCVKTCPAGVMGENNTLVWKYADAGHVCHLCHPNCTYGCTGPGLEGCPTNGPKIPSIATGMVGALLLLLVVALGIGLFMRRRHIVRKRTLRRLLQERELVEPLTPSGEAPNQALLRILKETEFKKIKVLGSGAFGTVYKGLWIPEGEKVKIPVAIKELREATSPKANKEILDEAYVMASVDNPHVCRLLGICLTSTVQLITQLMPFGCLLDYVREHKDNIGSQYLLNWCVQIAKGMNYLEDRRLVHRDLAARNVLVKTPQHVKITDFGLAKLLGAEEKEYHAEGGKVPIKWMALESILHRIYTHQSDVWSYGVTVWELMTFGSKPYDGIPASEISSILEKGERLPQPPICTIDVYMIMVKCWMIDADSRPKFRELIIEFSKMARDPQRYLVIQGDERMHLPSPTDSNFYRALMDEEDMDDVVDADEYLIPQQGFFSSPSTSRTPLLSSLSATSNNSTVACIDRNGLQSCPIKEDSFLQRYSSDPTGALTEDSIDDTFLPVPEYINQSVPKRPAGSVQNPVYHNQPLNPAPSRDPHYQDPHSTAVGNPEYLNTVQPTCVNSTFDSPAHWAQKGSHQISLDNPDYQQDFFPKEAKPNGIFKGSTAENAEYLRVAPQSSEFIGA

Chain of Serine/threonine-protein kinase MARK1 (Homo sapiens) (Q9P0L2 whole entry, looked up): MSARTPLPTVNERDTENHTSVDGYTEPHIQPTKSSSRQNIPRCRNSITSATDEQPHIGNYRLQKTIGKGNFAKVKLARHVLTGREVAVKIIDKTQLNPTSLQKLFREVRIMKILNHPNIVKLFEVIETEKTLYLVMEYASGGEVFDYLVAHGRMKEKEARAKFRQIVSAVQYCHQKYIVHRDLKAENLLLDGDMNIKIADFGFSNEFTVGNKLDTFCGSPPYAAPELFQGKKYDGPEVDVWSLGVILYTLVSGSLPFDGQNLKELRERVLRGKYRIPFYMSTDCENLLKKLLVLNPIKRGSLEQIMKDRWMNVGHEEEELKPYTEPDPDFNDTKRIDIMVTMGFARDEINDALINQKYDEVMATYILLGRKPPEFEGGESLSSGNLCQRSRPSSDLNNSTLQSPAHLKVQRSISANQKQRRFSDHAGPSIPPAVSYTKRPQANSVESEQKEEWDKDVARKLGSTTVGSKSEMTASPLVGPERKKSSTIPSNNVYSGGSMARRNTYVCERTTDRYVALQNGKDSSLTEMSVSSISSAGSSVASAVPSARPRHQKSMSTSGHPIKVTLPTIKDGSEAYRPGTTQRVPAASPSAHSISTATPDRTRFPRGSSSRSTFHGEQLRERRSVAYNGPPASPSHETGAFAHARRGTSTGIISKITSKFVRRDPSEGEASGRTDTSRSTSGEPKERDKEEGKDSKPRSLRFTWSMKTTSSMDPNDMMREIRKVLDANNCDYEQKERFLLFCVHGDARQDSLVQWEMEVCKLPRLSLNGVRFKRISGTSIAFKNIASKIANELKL
Chain of Protein kinase C theta type (Homo sapiens) (Q04759 whole entry, looked up): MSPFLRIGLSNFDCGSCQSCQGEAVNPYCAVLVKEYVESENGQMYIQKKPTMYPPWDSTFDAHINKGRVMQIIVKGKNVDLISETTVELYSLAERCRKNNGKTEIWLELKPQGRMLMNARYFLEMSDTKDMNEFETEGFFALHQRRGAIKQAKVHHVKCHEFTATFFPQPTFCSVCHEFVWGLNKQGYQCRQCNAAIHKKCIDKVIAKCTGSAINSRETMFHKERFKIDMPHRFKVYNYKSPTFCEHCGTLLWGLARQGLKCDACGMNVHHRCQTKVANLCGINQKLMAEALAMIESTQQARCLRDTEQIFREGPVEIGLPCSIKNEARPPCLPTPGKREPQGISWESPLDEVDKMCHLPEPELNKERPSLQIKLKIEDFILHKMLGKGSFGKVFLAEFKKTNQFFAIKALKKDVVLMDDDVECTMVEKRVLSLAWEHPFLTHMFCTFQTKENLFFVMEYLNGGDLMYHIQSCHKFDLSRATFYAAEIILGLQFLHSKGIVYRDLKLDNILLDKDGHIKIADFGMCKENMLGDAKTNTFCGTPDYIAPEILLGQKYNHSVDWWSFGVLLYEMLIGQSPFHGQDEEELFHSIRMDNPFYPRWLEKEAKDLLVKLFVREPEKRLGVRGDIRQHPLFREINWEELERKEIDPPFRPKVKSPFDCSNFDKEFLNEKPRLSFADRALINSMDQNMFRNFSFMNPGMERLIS

| inhibition [1] | inhibition [2] | inhibition [3] | inhibition [4] | inhibition [5] | inhibition [6] | Structure (SMILES) |
| --- | --- | --- | --- | --- | --- | --- |
| -7.27% | -9.99% | 7.59% | -3.95% | 2.65% | – | C[C@]1(O)C[C@@H](c2nc(-c3ccc4ccc(-c5ccccc5)nc4c3)c3c(N)nccn32)C1 |
| – | – | – | – | – | -6.78% | C[C@@]1(C(=O)Nc2ccc(F)nc2)CCCN1c1nc(Nc2cc(C3CC3)n[nH]2)c2cccn2n1 |
